Results: BindingDB's records for doi:10.1021/cb800306y (Stony Brook University, 2009)

Legend:
[1] = target: T1, Enoyl-[acyl-carrier-protein] reductase [NADH] (Francisella tularensis subsp. novicida (strain U112), UniProt A0Q794); assay: Enzyme Inhibition Assay; conditions: pH 8; 25 °C
T1 sequence (A0Q794 whole entry): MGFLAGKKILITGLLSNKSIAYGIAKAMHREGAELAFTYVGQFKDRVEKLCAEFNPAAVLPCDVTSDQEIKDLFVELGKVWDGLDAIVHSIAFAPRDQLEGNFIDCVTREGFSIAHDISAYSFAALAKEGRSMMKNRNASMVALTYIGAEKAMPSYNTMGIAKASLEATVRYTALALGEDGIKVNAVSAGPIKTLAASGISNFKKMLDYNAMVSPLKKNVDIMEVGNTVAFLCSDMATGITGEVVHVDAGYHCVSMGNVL
Excerpt: Inhibition constant binding to E-NADH

[2] = target: T1, Enoyl-[acyl-carrier-protein] reductase [NADH]; assay: Enzyme Inhibition Assay; conditions: pH 8; 25 °C; remark: listed apart in the source
Excerpt: Inhibition constant binding to E-NAD+

SMILES | Ki [1] [nM] | Ki [2] [nM]
CCCc1ccc(Oc2ccccc2)c(O)c1 [PT02] | 696 | 0.44
Oc1cc(Cl)ccc1Oc1ccccc1 [PT52] | 308 | 1.9
CCCCCCCCc1ccc(Oc2ccccc2)c(O)c1 [5-Octyl-2-phenoxy-phenol] | 192 | 23.6
Oc1cc(Cl)ccc1Oc1ccc(Cl)cc1Cl | 5000 | 0.051
CCCCCCc1ccc(Oc2ccccc2)c(O)c1 [5-hexyl-2-phenoxyphenol] | 331 | 2.7
Oc1cc(F)ccc1Oc1ccccc1 [PT55] | – | 289
CCc1ccc(Oc2ccccc2)c(O)c1 [PT01] | 311 | 2.1
Cc1ccc(Oc2ccccc2)c(O)c1 [PT53] | 247 | 1.9
